Assay results from patent US8158606B2, “β-L-2′-deoxynucleosides for the treatment of resistant HBV strains and combination therapies” (priority 2002, dated 2012).
Several values for one entry are separate records, joined by “and”; a condition that tells them apart may be missing. Equal entries are not always repeated. Structures can show the parent of a compound that is named as a salt. Where two headings read alike, the source gives them in different places.

Key:
[1] = assay type: physicochemical; details: octanol-1 (B) / MilliQ water pH 6.5 (A′), Study 1 and Study 2, listed as L-dC-3′,5′-divalinyl ester hydrochloride
Protocol: (§1) To 1 mL of this solution, 1 mL of octanol-1 (B) saturated with MilliQ water (A′) was added.
as §1

[2] = dival-L-dC 10 mg/kg oral
From the text: The drug was quantitated in plasma and in urine using HPLC analysis.

[3] = Stability study in buffer at pH 7.4, 7.20, 4.5 and 1.2; assay type: physicochemical; details: no other compounds detected up to 48 hours
[4] = assay type: in vivo, cynomolgus monkey (Macaca fascicularis)
From the text: The drug was quantitated in plasma and urine with a liquid chromatography-mass spectrometry (LC-MS) technique.

[5] = In vitro stability of dival-L-dC in human plasma; assay type: in vitro ADME; details: 37° C.
From the text: Two additional metabolites (β-L-2′-deoxycytidine-5′-valine ester and β-L-2′-deoxycytidine-valine ester) were also noted.

[6] = Log P study, octanol-1 / phosphate buffer
Protocol: To 1 mL of this solution, 1 mL of octanol-1 (B) saturated with 0.02 M phosphate buffer solution (A) was added. The resultant mixture was shaken and centrifuged; three samples from each phase was collected and analyzed by HPLC, as shown in Table 10.
The solution was then saturated with octanol-1 (B). To 1 mL of this solution, 1 mL of octanol-1 (B) saturated with 0.02 M phosphate buffer solution (A) was added. The resultant mixture was shaken and centrifuged; three samples from each phase was collected and analyzed by HPLC, as shown in Table 11.

[7] = tested on: human plasma proteins; assay type: in vitro ADME; details: ex vivo, ultrafiltration
[8] = Bioavailability of the prodrugs of L-dC; details: oral administration to monkeys
[9] = Solubility study in water (HPLC calibration); details: listed as 3′,5′-divalinyl ester hydrochloride of β-L-dC, hydrochloride
[10] = during the log P experiment in phosphate buffer

CC(C)[C@H](N)C(=O)OC[C@@H]1O[C@H](n2ccc(N)nc2=O)C[C@H]1OC(=O)[C@@H](N)C(C)C [3′5′-dival-L-dC, 3,5′-L-Valine ester of 2′-deoxy-β-L-cytidine hydrochloride]
P′ (B/A′) [1]: 1.80 × 10^−3 and 1.77 × 10^−3
L-dC as share of drug excreted in the urine [2]: ~89%
administered oral dose recovered in urine after 72 hours [2]: 31%
administered oral dose recovered in urine within 8 hours [2]: Approximately 26%
renal excretion of L-dU, share of the recovered dose [2]: approximately 10%
dival-L-dC in plasma at 15 minutes post-dose ([2]; detected in only one animal): 0.35 µM
stability in words [3]: fully stable
Cmax of val-L-dC (unchanged prodrug) ([4]; Oral (10 mg/kg dival-L-dC)): Not detected
L-dC as share of drug excreted in the urine ([4]; dival-L-dC 10 mg/kg IV): ~93%
administered dose excreted in urine within 2 hours ([4]; dival-L-dC 10 mg/kg IV): 58±3%
renal excretion of L-dU, share of total recovered dose ([4]; dival-L-dC 10 mg/kg IV): approximately 2.5%
renal excretion of β-L-2′-deoxycytidine-5′-valine ester, share of total recovered dose ([4]; dival-L-dC 10 mg/kg IV): ~3.7%
β-L-2′-deoxycytidine-5′-valine ester in plasma at 15 minutes ([4]; dival-L-dC 10 mg/kg IV): 3.23 µM
β-L-2′-deoxycytidine-5′-valine ester in plasma by 2 hours ([4]; dival-L-dC 10 mg/kg IV): 0.08 µM
dival-L-dC in plasma at 30 minutes ([4]; dival-L-dC 10 mg/kg IV, 1 of 3 animals): 0.36 µM
dival-L-dC in urine, share of the recovered dose ([4]; dival-L-dC 10 mg/kg IV, one of three animals at 2 hours): approximately 0.15%
L-dC as share of drug excreted in the urine ([4]; dival-L-dC 10 mg/kg oral): ~95%
L-dC as share of plasma drug levels at Cmax ([4]; dival-L-dC 10 mg/kg oral): > 99%
administered oral dose recovered in urine after 72 hours ([4]; dival-L-dC 10 mg/kg oral): 39±8%
administered oral dose recovered in urine within 4 hours ([4]; dival-L-dC 10 mg/kg oral): ~31±8%
renal excretion of L-dU, share of total recovered dose ([4]; dival-L-dC 10 mg/kg oral): approximately 2.5%
renal excretion of β-L-2′-deoxycytidine-5′-valine ester, share of total recovered dose ([4]; dival-L-dC 10 mg/kg oral): ~0.2%
L-dU concentration in plasma at 8 hours ([4]; dival-L-dC 10 mg/kg oral, one animal): 0.39 µM
in vitro half-life in human plasma [5]: approximately 39 min
conversion of the divaline ester detected in the aqueous phase [6, 10]: 50%
conversion of the divaline ester detected in the organic phase [6, 10]: 14%
log P (octanol/water) ([6]; octanol-1 / 0.02 M phosphate buffer pH 7.2): −0.86
binding to human plasma proteins [7]: 13.3%
share of absorbed ester converted to L-dC [8]: more than 99%
share of the oral dose absorbed [8]: approximately 73%
Solubility (mol/L) [9]: more than 2.5 mol/L
